Experimental data published in US5750546A, “2-(2, 3, 5, 6-tetrafluoro-4-pyridyl)-1, 2, 5-thiadiazolidin-3-one 1, 1-dioxides and compositions and method of use thereof” (Sanofi Winthrop, Inc., priority 1994, dated 1998).

Molecular target: T1, human leukocyte elastase (Homo sapiens, UniProt P08246)
T1 sequence (P08246 30-267): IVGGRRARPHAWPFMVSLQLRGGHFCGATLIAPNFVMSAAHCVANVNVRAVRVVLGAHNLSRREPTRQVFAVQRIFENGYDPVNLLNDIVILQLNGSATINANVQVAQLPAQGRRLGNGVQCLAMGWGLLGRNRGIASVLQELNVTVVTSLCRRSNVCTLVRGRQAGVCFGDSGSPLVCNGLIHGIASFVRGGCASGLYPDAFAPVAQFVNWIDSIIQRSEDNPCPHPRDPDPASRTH
Assay: human leukocyte elastase inhibition assay (progress curves, MeOSuc-Ala-Ala-Pro-Val-pNA substrate)
Type: biochemical
Settings: in vitro, pH 7.8 at 25° C., absorbance 410 nm, read-out: Ki, human leukocyte elastase inhibitory activity
Method: The test compound (inhibitor) is dissolved in DMSO in a vial to produce an inhibitor stock solution which has a concentration in the range of 200-1000μM. The inhibitor stock solution is diluted (1:4, 1:16 and 1:64) into assay vials (vials 1, 2 and 3 respectively) containing 2.4 mL of buffer solution (50 mM N-[2-hydroxyethyl] piperazine-N'-[2-ethanesulfonic acid]/NaOH, 500 mM NaCl, pH 7.8 at 25° C.) and DMSO is added so that the total volume in each vial is 3.2 mL. 70 μL, 50 μL, 35 μL and 25 μL of inhibitor from assay vial 1 is placed into the first four wells of a 96-well microtiter plate and each well is made up to 90 μL total volume with the addition of a 25% DMSO/buffer solution. […]
The 96-well microtiter plate is placed into a Microplate Reader #89815A spectrophotometer and 110 μL of the enzyme solution (prepared as follows: a mixture of 20 mL of buffer solution and 20 mg of bovine serum albumen is gently vortexed in a scintillation vial and 5 μL HLE stock solution (1 mg/mL dissolved in deionized water) is added) is added simultaneously to each of the 16 wells. Each of the solutions in the wells is throughly mixed and then the time-dependent absorbance data is collected at an absorbance of 410 nm until the assay is complete. […]
A plot of the absorbance versus time data thus obtained affords progress curves the final slope of which is equal to the final steady-state velocities (VF). […]

Structure (SMILES) | Ki
CC(C)CCC1C(=O)N(c2c(F)c(F)nc(F)c2F)S(=O)(=O)N1C (centres unmarked) [2(h), 2-(2,3,5,6-tetrafluoro-4-pyridyl)-5-methyl-4-(3-methylbutyl)-1,2,5-thiadiazolidin-3-one 1,1-dioxide] | > 100 nM
CCCC1C(=O)N(c2c(F)c(F)nc(F)c2F)S(=O)(=O)N1C (centres unmarked) [Example 1(g), 2-(2,3,5,6-tetrafluoro-4-pyridyl)-5-methyl-4-propyl-1,2,5-thiadiazolidin-3-one 1,1-dioxide] | 10 nM
